Reference: patent US20240216401A1, “COMBINATION THERAPY BY USING AKR1C3-ACTIVATED COMPOUND WITH IMMUNE CHECKPOINT INHIBITOR” (OBI Pharma, Inc., priority 2021, published 2024)
“And” between values parts separate entries of the source, which are not always exact repeats. Equal entries are not always repeated.

Tests used:
Assay type in all cases: in vivo, Mus musculus
[1] = Example 1: body weight and mortality of HepG2 tumor bearing humanized mice; details: for Body Weight, Mean: OBI-3424 1 mg/kg IV, antibody 10 mg/kg IP (20 from Day 15)
Protocol: (§1) Each group contains five mice. The human hepatocellular carcinoma cell line HepG2 were subcutaneously inoculated to the advanced immune deficiency mice. Total of 30 mice were included in this study.
(§2) 3.1. […] The injection was performed using insulin syringe with the dosage of 10 mg/kg (Dosage of injection was changed to 20 mg/kg from Day 15) and injection volume of 10 mL/kg. […] The reference item was administered for G1. The procedure followed the standards of sample administration.
(§3) 3.2. The test item anti-hPD-L1 antibody or reference items were intraperitoneally injected to the mice on Day 8 after the inoculation of tumor cells. The injection was performed using insulin syringe with the dosage of 10 mg/kg (Dosage of injection was changed to 20 mg/kg from Day 15) and injection volume of 10 mL/kg. The test item anti-hPD-L1 was continuously administered on Day 8, 11, 15, 18, 22, 25, 29 and 32 for G4 and G6. The reference item was administered for G1. The procedure followed the standards of sample administration.
(§4) 3.3. […] The injection was performed using insulin syringe with the dosage of 1 mg/kg and injection volume of 5 mL/kg. […] The reference item was administered for G1. The procedure followed the standards of sample administration.
The measurement was performed from the next day of the inoculation. The animal body weights were measured and recorded twice per week.

[2] = tested on: PD-L1^+ cells in tumor-infiltrating lymphocytes; experiment: Example 1: flow cytometry, percentage of PD-L1 cells in TILs; details: individual animal
Protocol: (§5) Mice were sacrificed by CO2 euthanasia at the end of the study duration, and the connective tissue around tumor was resected. The tumor samples were then removed and weighed. The half tissue was fixed in 10% formaldehyde and then embedded in paraffin; the other half was prepared for the isolation of tumor-infiltrating lymphocytes (TILs).
(§6) The half of mouse tumors were dissected into smaller fragments using scalpels and then digested with a cocktail of collagenase, DNase I, and Hyaluronidase (Collagenase #C5138, DNase I #D5025, Hyaluronidase #H6254, SigmaAldrich) for at least 2 hours.
(§7) Cells were stained with the fluorescently conjugated surface antibodies and incubated for 30 minutes at 4° C., and then resuspended in staining buffer for flow cytometric analysis. Flow cytometry was done using a Navios EX Flow Cytometer (Beckman Coulter). Data were analyzed using the Kaluza Analysis Software (Beckman Coulter).

[3] = tested on: NK cells in tumor-infiltrating lymphocytes; experiment: Example 1: flow cytometry, percentage of NK cells in TILs; details: individual mice
Protocol: as §5, §6, §7

[4] = tested on: CD4^+ T helper cells in tumor-infiltrating lymphocytes; experiment: Example 1: flow cytometry, percentage of TH cells in TILs; details: individual mice
Protocol: as §5, §6, §7

[5] = tested on: HepG2 tumor; experiment: Example 1: tumor volume, tumor weight and TGI in HepG2 tumor bearing humanized mice
Protocol: as §1
2.2. […] The subcutaneous injection volume was […].
as §2, §3, §4
The measurement was performed from the next day of the inoculation. The tumor volumes were measured and recorded twice a week (Mon., Thur.). Tumor volume was calculated by ellipsoid equation according to the records ((major axis×minor axis×minor axis)×(π/6)).
Tumor volumes were used to calculate tumor growth inhibition (TGI) rates according to the following formula: TGI (%)=[1−(Ti−T0)/(Ci−C0)]×100, where Ti and Ci indicate the mean tumor volume in the treatment groups and vehicle group at the end of the experiment (Day 35). Whereas, T0 and C0 indicate the mean tumor volumes in the treatment group and vehicle group at the beginning of the experiment (Day 1).
as §5

[6] = tested on: CD8^+ cytotoxic T cells (CTL) in tumor-infiltrating lymphocytes; experiment: Example 1: flow cytometry, percentage of CTL cells in TILs
Protocol: as §5, §6, §7

[7] = TILs, flow cytometer, individual mice
[8] = TILs, gate CD45^+CD8^+ cells, individual mice

In the case of “anti-hPD-L1: Anti-Human PD-L1 antibody, Avelumab”, the “Body Weight, Mean” value ([1]; Day 0, group mean) is reported as 22.87 g, the “Body Weight, Mean” value ([1]; Day 1, group mean) is reported as 22.73 g and the “Body Weight, Mean” value ([1]; Day 4, group mean) is reported as 23.32 g. For the same substance, the “Body Weight, Mean” value ([1]; Day 7, group mean) was 23.48 g, the “Body Weight, Mean” value ([1]; Day 11, group mean) was 24.17 g and the “Body Weight, Mean” value ([1]; Day 14, group mean) was 23.74 g. For the same substance, the “Body Weight, Mean” value ([1]; Day 18, group mean) was 23.56 g, the “Body Weight, Mean” value ([1]; Day 21, group mean) was 23.37 g and the “Body Weight, Mean” value ([1]; Day 25, group mean) was 23.70 g. The “Body Weight, Mean” value ([1]; Day 28, group mean) was 23.57 g, the “Body Weight, Mean” value ([1]; Day 32, group mean) was 22.55 g and the “Body Weight, Mean” value ([1]; Day 35, group mean) was 23.35 g. For the same substance, the mortality ([1]; one mouse (MI052) of G4) was “found dead on Day 34”, the “CD45^+ cells Cell count (×10^6)” value [2] was 2.97 ×10^6 and 7.12 ×10^6 and 3.71 ×10^6 and 1.64 ×10^6 and the “CD45^+ cells Gated %” value [2] was 34.93% and 47.08% and 31.41% and 28.59%. For the same substance, the “CD45^+ cells Total %” value [2] was 24.35% and 32.38% and 20.95% and 22.77%, the “Total PD-L1^+ cells (PD-L1^+) Cell count (×10^5)” value [2] was 1.35 ×10^5 and 3.98 ×10^5 and 15.58 ×10^5 and 12.17 ×10^5 and the “Total PD-L1^+ cells (PD-L1^+), Total %” value [2] was 1.11% and 1.81% and 8.80% and 16.86%. For the same substance, the “Total PD-L1^+ cells (PD-L1^+), Total cells Gated %” value [2] was 1.43% and 2.38% and 11.79% and 19.02%, the “Total cells Cell count (×10^6)” value [2] was 9.42 ×10^6 and 16.72 ×10^6 and 13.21 ×10^6 and 6.40 ×10^6 and the “Total cells Gated %” value [2] was 77.18% and 75.98% and 74.62% and 88.63%. For the same substance, the “Total cells Total %” value [2] was 77.18% and 75.98% and 74.62% and 88.63%, the “CD16^+ NK cells (CD45^+CD56^+ CD16^+) Total %” value ([3]; flow cytometer) was 0.44% and 0.80% and 0.62% and 0.48% and the “NK cells (CD45^+CD56^+) Total %” value ([3]; flow cytometer) was 1.67% and 2.61% and 1.42% and 1.80%. For the same substance, the “PD-1^+ NK cells (CD45^+CD56^+PD-1^+) Total %” value ([3]; flow cytometer) was 2.28% (2×) and 2.10% and 1.78%, the “NK cells (CD45^+CD56^+) CD45^+ Gated %” value ([3]; gate CD45^+ cells) was 9.51% and 10.84% and 12.49% and 8.78% and the “CD16^+ NK cells (CD45^+CD56^+ CD16^+) NK Gated %” value ([3]; gate CD45^+CD56^+ cells) was 26.13% and 30.65% and 43.46% and 26.39%. The “PD-1^+ NK cells (CD45^+CD56^+PD-1^+) NK Gated %” value ([3]; gate CD45^+CD56^+ cells) was 99.56% and 97.23% and 88.77% and 91.52%, the “CD16^+ NK cells (CD45^+CD56^+ CD16^+) Cell count” value [3] was 0.54 ×10^5 and 1.76 ×10^5 and 1.10 ×10^5 and 0.35 ×10^5 and the “NK cells (CD45^+CD56^+) Cell count” value [3] was 2.04 ×10^5 and 5.74 ×10^5 and 2.51 ×10^5 and 1.30 ×10^5. The “PD-1^+ NK cells (CD45^+CD56^+PD-1^+) Cell count” value [3] was 2.78 ×10^5 and 5.02 ×10^5 and 3.72 ×10^5 and 1.29 ×10^5, the “CD25^+ TH cells (CD45^+CD4^+ CD25^+) Total %” value ([4]; flow cytometer) was 1.19% and 1.34% and 1.01% and 1.14% and the “PD-1^+ TH cells (CD45^+CD4^+ PD-1^+) Total %” value ([4]; flow cytometer) was 10.85% and 11.67% and 6.66% and 15.38%. The “TH cells (CD45^+CD4^+) Total %” value ([4]; flow cytometer) was 9.82% and 12.42% and 6.81% and 15.92%, the “TH cells (CD45^+CD4^+) CD45^+ Gated %” value ([4]; gate CD45^+ cells) was 40.34% and 38.36% and 32.51% and 69.93% and the “CD25^+ TH cells (CD45^+CD4^+CD25^+) TH Gated %” value ([4]; gate CD45^+CD4^+ cells) was 12.12% and 10.75% and 14.76% and 7.16%. For the same substance, the “PD-1^+ TH cells (CD45^+CD4^+ PD-1^+) TH Gated %” value ([4]; gate CD45^+CD4^+ cells) was 99.40% (2×) and 99.02% and 99.19%, the “CD25^+ TH cells (CD45^+CD4^+ CD25^+) Cell count” value [4] was 1.45 ×10^5 and 2.95 ×10^5 and 1.79 ×10^5 and 0.82 ×10^5 and the “PD-1^+ TH cells (CD45^+CD4^+ PD-1^+) Cell count” value [4] was 13.24 ×10^5 and 25.67 ×10^5 and 11.79 ×10^5 and 11.10 ×10^5. For the same substance, the “TH cells (CD45^+CD4^+) Cell count” value [4] was 11.98 ×10^5 and 27.32 ×10^5 and 12.05 ×10^5 and 11.49 ×10^5, the “Tumor volume, Mean” value ([5]; D 1, group mean, OBI-3424 1 mg/kg IV, antibody 10 mg/kg IP (20 from Day 15)) was 409.71 mm^3 and the “Tumor volume, Mean” value ([5]; D 4, group mean, OBI-3424 1 mg/kg IV, antibody 10 mg/kg IP (20 from Day 15)) was 316.07 mm^3. For the same substance, the “Tumor volume, Mean” value ([5]; D 7, group mean, OBI-3424 1 mg/kg IV, antibody 10 mg/kg IP (20 from Day 15)) was 304.50 mm^3, the “Tumor volume, Mean” value ([5]; D 11, group mean, OBI-3424 1 mg/kg IV, antibody 10 mg/kg IP (20 from Day 15)) was 342.83 mm^3 and the “Tumor volume, Mean” value ([5]; D 14, group mean, OBI-3424 1 mg/kg IV, antibody 10 mg/kg IP (20 from Day 15)) was 371.47 mm^3. The “Tumor volume, Mean” value ([5]; D 18, group mean, OBI-3424 1 mg/kg IV, antibody 10 mg/kg IP (20 from Day 15)) was 491.18 mm^3, the “Tumor volume, Mean” value ([5]; D 21, group mean, OBI-3424 1 mg/kg IV, antibody 10 mg/kg IP (20 from Day 15)) was 675.33 mm^3 and the “Tumor volume, Mean” value ([5]; D 25, group mean, OBI-3424 1 mg/kg IV, antibody 10 mg/kg IP (20 from Day 15)) was 812.95 mm^3. For the same substance, the “Tumor volume, Mean” value ([5]; D 28, group mean, OBI-3424 1 mg/kg IV, antibody 10 mg/kg IP (20 from Day 15)) was 866.97 mm^3, the “Tumor volume, Mean” value ([5]; D 32, group mean, OBI-3424 1 mg/kg IV, antibody 10 mg/kg IP (20 from Day 15)) was 1155.84 mm^3 and the “Tumor volume, Mean” value ([5]; D 35, group mean (mean±SEM), OBI-3424 1 mg/kg IV, antibody 10 mg/kg IP (20 from Day 15)) was 1148.64±193.00 mm^3 and 1148.64 mm^3. For the same substance, the “Tumor weight, Mean” value ([5]; D 35, group mean, OBI-3424 1 mg/kg IV, antibody 10 mg/kg IP (20 from Day 15)) was “*1010.73 mg”, the “mean tumor volume compared with vehicle (in words)” value ([5]; Day 35, vs vehicle (G1), Student's t-test) was “No statistically significant difference” and the “effect on tumor growth (conclusion in words)” value ([5]; HepG2 humanized mouse model) was “no effect on tumor growth”. The TGI ([5]; from mean tumor volumes Day 35 vs Day 1, relative to vehicle, OBI-3424 1 mg/kg IV, antibody 10 mg/kg IP (20 from Day 15)) was 35.60%, the “CD8^+ cytotoxic T cells (CTL) population in tumors compared with vehicle (in words)” value ([6]; Example 1, TILs at sacrifice, flow cytometry) was “not observed” and the “CD25^+ CTL cells (CD45^+CD8^+ CD25^+) Total %” value [6, 7] was 0.27% and 0.30% and 0.21% and 0.63%. For the same substance, the “CTL cells (CD45^+CD8^+) Total %” value [6, 7] was 14.00% and 18.51% and 11.85% and 16.01%, the “PD-1^+ CTL cells (CD45^+CD8^+ PD-1^+) Total %” value [6, 7] was 17.16% and 16.84% and 12.16% and 16.68% and the “CTL cells (CD45^+CD8^+) CD45^+ Gated %” value ([6]; TILs, gate CD45^+ cells, individual mice) was 57.51% and 57.17% and 56.56% and 70.33%. For the same substance, the “CD25^+ CTL cells (CD45^+CD8^+ CD25^+) CTL Gated %” value [6, 8] was 1.93% and 1.59% and 1.77% and 3.90%, the “PD-1^+ CTL cells (CD45^+CD8^+ PD-1^+) CTL Gated %” value [6, 8] was 97.44% and 88.98% and 94.63% and 98.61% and the “CD25^+ CTL cells (CD45^+CD8^+ CD25^+) Cell count” value ([6]; TILs, individual mice) was 0.33 ×10^5 and 0.66 ×10^5 and 0.37 ×10^5 and 0.45 ×10^5. The “CTL cells (CD45^+CD8^+) Cell count” value ([6]; TILs, individual mice) was 17.08 ×10^5 and 40.72 ×10^5 and 20.97 ×10^5 and 11.56 ×10^5 and the “PD-1^+ CTL cells (CD45^+CD8^+ PD-1^+) Cell count” value ([6]; TILs, individual mice) was 20.94 ×10^5 and 37.05 ×10^5 and 21.52 ×10^5 and 12.04 ×10^5.
